According to patent US7659404B2, “Broad spectrum 2-(substituted-amino)-benzothiazole sulfonamide HIV protease inhibitors” (Tibotec Pharmaceuticals Ltd., priority 2001, dated 2010):

Columns and labels:
wild type virus (IIIB) = assay: HIV-AVE-MT4-MTT cellular assay, wild type virus (IIIB); assay type: cell-based; conditions: MT4 cells, MTT; for EC50: Human immunodeficiency virus 1, IIIB, MT4, wild type virus (IIIB), read-out: HIV-AVE-MT4-MTT-IIIB-2-002 pEC50 (converted); for HIV-AVE-MT4-MTT-IIIB-2-002 pEC50: wild type virus (IIIB)
Description: (§1) HIV- or mock-infected MT4 cells were incubated for five days in the presence of various concentrations of the inhibitor. At the end of the incubation period, all HIV-infected cells have been killed by the replicating virus in the control cultures in the absence of any inhibitor. Cell viability is measured by measuring the concentration of MTT, a yellow, water soluble tetrazolium dye that is converted to a purple, water insoluble formazan in the mitochondria of living cells only. Upon solubilization of the resulting formazan crystals with isopropanol, the absorbance of the solution is monitored at 540 nm. The values correlate directly to the number of living cells remaining in the culture at the completion of the five day incubation. The inhibitory activity of the compound was monitored on the virus-infected cells and was expressed as EC50 and EC90. These values represent the amount of the compound required to protect 50% and 90%, respectively, of the cells from the cytopathogenic effect of the virus. The toxicity of the compound was measured on the mock-infected cells and was expressed as CC50, which represents the concentration of compound required to inhibit the growth of the cells by 50%. The selectivity index (SI) (ratio CC50/EC50) is an indication of the selectivity of the anti-HIV activity of the inhibitor.

virus strain F (R13025) = assay: microbe, parasite or virus in culture; assay type: cell-based, HIV; conditions: for EC50: Human immunodeficiency virus 1, MT4, read-out: HIV-AVE-MT4-MTT-R13025-2-002 pEC50, virus strain F (R13025), MT4 cells, MTT (converted); for HIV-AVE-MT4-MTT-R13025-2-002 pEC50: virus strain F (R13025), MT4 cells
Description: as §1, with “At the end of the incubation period, all HIV-infected cells have been killed by the replicating virus in the control cultures in the absence of any inhibitor.” left out
(§2) Because of the increasing emergence of drug resistant HIV strains, the present compounds were tested for their potency against clinically isolated HIV strains harboring several mutations.
(§3) As a measure of the broad spectrum activity of the present compounds, the fold resistance (FR) defined as FR=EC50(mutant strain)/EC50(HIV-1 strain LAI).

virus strain S (R13080) = assay: microbe, parasite or virus in culture; assay type: cell-based, HIV; conditions: for EC50: Human immunodeficiency virus 1, MT4, read-out: HIV-AVE-MT4-MTT-R13080-2-002 pEC50, virus strain S (R13080), MT4 cells, MTT (converted); for HIV-AVE-MT4-MTT-R13080-2-002 pEC50: virus strain S (R13080), MT4 cells
Description: as §1, with “At the end of the incubation period, all HIV-infected cells have been killed by the replicating virus in the control cultures in the absence of any inhibitor.” left out
as §2, §3

Compound | EC50 (wild type virus (IIIB)) | EC50 (virus strain F (R13025)) | EC50 (virus strain S (R13080)) | HIV-AVE-MT4-MTT-IIIB-2-002 pEC50 (wild type virus (IIIB)) | HIV-AVE-MT4-MTT-R13025-2-002 pEC50 (virus strain F (R13025)) | HIV-AVE-MT4-MTT-R13080-2-002 pEC50 (virus strain S (R13080))
Cc1cccc(C)c1OCC(=O)N[C@@H](Cc1ccccc1)[C@H](O)CN(CC(C)C)S(=O)(=O)c1ccc2nc(NC(=O)c3cccc(O)c3C)sc2c1 [Compound 117] | 47.9 nM | 35.5 nM | 191 nM | – | – | –
CC(=O)NCCNc1nc2ccc(S(=O)(=O)N(CC(C)C)C[C@@H](O)[C@H](Cc3ccccc3)NC(=O)OC(C)(C)C)cc2s1 [Compound 121] | 20.9 nM | 2820 nM | 10000 nM | – | – | –
Cc1cccc(C)c1OCC(=O)N[C@@H](Cc1ccccc1)[C@H](O)CN(CC(C)C)S(=O)(=O)c1ccc2nc(NC(=O)c3ccncc3)sc2c1 [Compound 125] | 6.31 nM | 26.9 nM | 145 nM | – | – | –
CC(C)CN(C[C@@H](O)[C@H](Cc1ccccc1)NC(=O)OC(C)(C)C)S(=O)(=O)c1ccc2nc(NCCN3CCCC3)sc2c1 [Compound 126] | 49 nM | 3160 nM | 10000 nM | – | – | –
Cc1cccc(C)c1OCC(=O)N[C@@H](Cc1ccccc1)[C@H](O)CN(CC(C)C)S(=O)(=O)c1ccc2nc(NC(=O)C3CCN(C)CC3)sc2c1 [Compound 127] | 16.6 nM | 31.6 nM | 135 nM | – | – | –
Cc1cccc(C)c1OCC(=O)N[C@@H](Cc1ccccc1)[C@H](O)CN(CC(C)C)S(=O)(=O)c1ccc2nc(NC(=O)C3CCCN(C)C3)sc2c1 (stereo partly drawn) [Compound 128] | 5.89 nM | 19.1 nM | 56.2 nM | – | – | –
Cc1cccc(C)c1OCC(=O)N[C@@H](Cc1ccccc1)[C@H](O)CN(CC(C)C)S(=O)(=O)c1ccc2nc(NCc3ccncc3)sc2c1 [Compound 131] | 46.8 nM | 832 nM | 1050 nM | – | – | –
CC(=O)NCCNc1nc2ccc(S(=O)(=O)N(CC(C)C)C[C@@H](O)[C@H](Cc3ccccc3)NC(=O)COc3c(C)cccc3C)cc2s1 [Compound 133] | 21.4 nM | 33.9 nM | 158 nM | – | – | –
Cc1cccc(C)c1OCC(=O)N[C@@H](Cc1ccccc1)[C@H](O)CN(CC(C)C)S(=O)(=O)c1ccc2nc(N3CCCC3C(=O)O)sc2c1 (stereo partly drawn) [Compound 139] | 2090 nM | 3090 nM | 10000 nM | – | – | –
CC(C)CN(C[C@@H](O)[C@H](Cc1ccccc1)NC(=O)O[C@H]1CO[C@H]2OCC[C@H]21)S(=O)(=O)c1ccc2nc(N(C)CCCN(C)C)sc2c1 [Compound 141] | – | – | – | 7.83 | 6.49 | 6.02
COC(=O)CCNc1nc2ccc(S(=O)(=O)N(CC(C)C)C[C@@H](O)[C@H](Cc3ccccc3)NC(=O)OC(C)(C)C)cc2s1 [Compound 143] | 74.1 nM | 10000 nM | 10000 nM | – | – | –
Cc1cccc(C)c1OCC(=O)Nc1nc2ccc(S(=O)(=O)N(CC(C)C)C[C@@H](O)[C@H](Cc3ccccc3)NC(=O)COc3c(C)cccc3C)cc2s1 [Compound 145] | 12.6 nM | 39.8 nM | 145 nM | – | – | –
CC(C)CN(C[C@@H](O)[C@H](Cc1ccccc1)NC(=O)OC1CCSC1)S(=O)(=O)c1ccc2nc(NCCN(C)C)sc2c1 (stereo partly drawn) [Compound 146] | 9.55 nM | 302 nM | 1000 nM | – | – | –
CNCCNc1nc2ccc(S(=O)(=O)N(CC(C)C)C[C@@H](O)[C@H](Cc3ccccc3)NC(=O)OCc3cncs3)cc2s1 [Compound 150] | 42.7 nM | 162 nM | 661 nM | – | – | –
CC(C)CN(C[C@@H](O)[C@H](Cc1ccccc1)NC(=O)OCc1cncs1)S(=O)(=O)c1ccc2nc(N3CCN(C)C3=O)sc2c1 [Compound 151] | 107 nM | 813 nM | 2690 nM | – | – | –
CC(C)CN(C[C@@H](O)[C@H](Cc1ccccc1)NC(=O)OCc1cncs1)S(=O)(=O)c1ccc2nc(N(C)C(=O)c3cc(ON)cc(ON)c3)sc2c1 [Compound 152] | 33.1 nM | 562 nM | 1740 nM | – | – | –

Compound | EC50 (wild type virus (IIIB)) | EC50 (virus strain F (R13025)) | EC50 (virus strain S (R13080)) | HIV-AVE-MT4-MTT-IIIB-2-002 pEC50 (wild type virus (IIIB)) | HIV-AVE-MT4-MTT-R13025-2-002 pEC50 (virus strain F (R13025)) | HIV-AVE-MT4-MTT-R13080-2-002 pEC50 (virus strain S (R13080))
CC(C)CN(C[C@@H](O)[C@H](Cc1ccccc1)NC(=O)OCc1cncs1)S(=O)(=O)c1ccc2nc(N(C)C(=O)c3cccnc3)sc2c1 [Compound 153] | 7.41 nM | 45.7 nM | 339 nM | – | – | –
CC(C)CN(C[C@@H](O)[C@H](Cc1ccccc1)NC(=O)OCc1cncs1)S(=O)(=O)c1ccc2nc(N(C)C(=O)c3ccccn3)sc2c1 [Compound 154] | 5.5 nM | 38 nM | 372 nM | – | – | –
CC(C)CN(C[C@@H](O)[C@H](Cc1ccccc1)NC(=O)OCc1cncs1)S(=O)(=O)c1ccc2nc(NC(=O)CN3CCNCC3)sc2c1 [Compound 155] | 42.7 nM | 24.5 nM | – | – | – | 7.49
CC(C)CN(C[C@@H](O)[C@H](Cc1ccccc1)NC(=O)OCc1cncs1)S(=O)(=O)c1ccc2nc(NC(=O)CN3CCN(C)CC3)sc2c1 [Compound 156] | 7.24 nM | – | 27.5 nM | – | 8.27 | –
CC(C)CN(C[C@@H](O)[C@H](Cc1ccccc1)NC(=O)OCc1cncs1)S(=O)(=O)c1ccc2nc(NC(=O)CN3CCNCC3)sc2c1 [Compound 157] | – | – | – | 7.54 | 7.5 | 6.85
CC(C)CN(C[C@@H](O)[C@H](Cc1ccccc1)NC(=O)OCc1cncs1)S(=O)(=O)c1ccc2nc(NC(=O)CN3CCOCC3)sc2c1 [Compound 158] | 3.31 nM | 7.94 nM | 30.2 nM | – | – | –
CC(C)CN(C[C@@H](O)[C@H](Cc1ccccc1)NC(=O)OCc1cncs1)S(=O)(=O)c1ccc2nc(NC(=O)CN3CCN(C)CC3)sc2c1 [Compound 159] | – | – | – | 8.1 | 7.78 | 7.46
CC(C)CN(C[C@@H](O)[C@H](Cc1ccccc1)NC(=O)OCc1cncs1)S(=O)(=O)c1ccc2nc(C(C)C(=O)CCCC(=O)O)sc2c1 (stereo partly drawn) [Compound 160] | 51.3 nM | 479 nM | 2450 nM | – | – | –
CC(C)CN(C[C@@H](O)[C@H](Cc1ccccc1)NC(=O)OCc1cncs1)S(=O)(=O)c1ccc2nc(NC(=O)C3CCC(=O)N3)sc2c1 (stereo partly drawn) [Compound 161] | 9.12 nM | 17.4 nM | 33.9 nM | – | – | –
CC(C)CN(C[C@@H](O)[C@H](Cc1ccccc1)NC(=O)OCc1cncs1)S(=O)(=O)c1ccc2nc(NC(=O)c3cc(ON)cc(ON)c3)sc2c1 [Compound 162] | 20.4 nM | 46.8 nM | 158 nM | – | – | –
CC(C)CN(C[C@@H](O)[C@H](Cc1ccccc1)NC(=O)OCc1cncs1)S(=O)(=O)c1ccc2nc(NC(=O)c3cccnc3)sc2c1 [Compound 163] | 11.5 nM | 49 nM | 214 nM | – | – | –
CC(C)CN(C[C@@H](O)[C@H](Cc1ccccc1)NC(=O)OCc1cncs1)S(=O)(=O)c1ccc2nc(NC(=O)c3ccoc3)sc2c1 [Compound 164] | 7.08 nM | 33.9 nM | 158 nM | – | – | –
CC(C)CN(C[C@@H](O)[C@H](Cc1ccccc1)NC(=O)OCc1cncs1)S(=O)(=O)c1ccc2nc(NC(=O)c3ccccn3)sc2c1 [Compound 165] | 44.7 nM | 123 nM | 631 nM | – | – | –
CC(C)CN(C[C@@H](O)[C@H](Cc1ccccc1)NC(=O)OCc1cncs1)S(=O)(=O)c1ccc2nc(NC(=O)[C@@H]3CCCN3C)sc2c1 [Compound 166] | 6.31 nM | 21.9 nM | 74.1 nM | – | – | –
CC(C)CN(C[C@@H](O)[C@H](Cc1ccccc1)NC(=O)OCc1cncs1)S(=O)(=O)c1ccc2nc(NC(=O)OC(C)C)sc2c1 [Compound 167] | 4.9 nM | 30.9 nM | 141 nM | – | – | –
